For two compounds, growth results are on record in ChEMBL document CHEMBL3217615, “Novel 3,5-bis(arylidiene)-4-piperidone based monocarbonyl analogs of curcumin: anticancer activity evaluation and mode of action study” (2014).

Type in all cases: functional
One assay deals with NCI-H460. As to the kind of experiment: Growth inhibition of human NCI-H460 cells assessed as cell growth at 10^-5 M after 48 hrs by sulforhodamine B assay. Conditions: NCI-H460, 48 h, read-out: Activity.
The nature of assay [1]: Growth inhibition of human OVCAR3 cells assessed as cell growth at 10^-5 M after 48 hrs by sulforhodamine B assay. The conditions noted are these: OVCAR-3, 48 h, read-out: Activity.
Assay [2] can be described thus: Growth inhibition of human NCI-ADR-RES cells assessed as cell growth at 10^-5 M after 48 hrs by sulforhodamine B assay. Conditions: read-out: Activity.
The next assay deals with Malme-3M. The experiment in a line: Growth inhibition of human MALME-3M cells assessed as cell growth at 10^-5 M after 48 hrs by sulforhodamine B assay. The conditions noted are these: read-out: Activity. In general terms: Sulforhodamine B stains cellular protein and so reports cell mass.
For the next assay, the system named is SNB-75. The experiment in a line: Growth inhibition of human SNB75 cells assessed as cell growth at 10^-5 M after 48 hrs by sulforhodamine B assay. The conditions noted are these: SNB-75, 48 h, read-out: Activity.
For a further assay, the system named is SW-620. As to the kind of experiment: Growth inhibition of human SW620 cells assessed as cell growth at 10^-5 M after 48 hrs by sulforhodamine B assay. The conditions noted are these: SW-620, 48 h, read-out: Activity.
A further assay has as its system A549. The experiment in a line: Growth inhibition of human A549/ATCC cells assessed as cell growth at 10^-5 M after 48 hrs by sulforhodamine B assay. The conditions noted are these: A549, 48 h, read-out: Activity.
A short description of assay [3]: Growth inhibition of human SF539 cells assessed as cell growth at 10^-5 M after 48 hrs by sulforhodamine B assay. The conditions noted are these: SF-539, 48 h, read-out: Activity.
A further assay has as its system HT-29. As to the kind of experiment: Growth inhibition of human HT-29 cells assessed as cell growth at 10^-5 M after 48 hrs by sulforhodamine B assay. The conditions noted are these: HT-29, 48 h, read-out: Activity.
Assay [4] can be described thus: Growth inhibition of human RXF393 cells assessed as cell growth at 10^-5 M after 48 hrs by sulforhodamine B assay. The conditions noted are these: RXF 393, 48 h, read-out: Activity.
In a further assay the test system is NCI-H23. As to the kind of experiment: Growth inhibition of human NCI-H23 cells assessed as cell growth at 10^-5 M after 48 hrs by sulforhodamine B assay. Conditions: NCI-H23, 48 h, read-out: Activity.
The next assay relates to KM12. The experiment in a line: Growth inhibition of human KM12 cells assessed as cell growth at 10^-5 M after 48 hrs by sulforhodamine B assay. Conditions: KM12, 48 h, read-out: Activity.
The subject of another assay is PC-3. The experiment in a line: Growth inhibition of human PC3 cells assessed as cell growth at 10^-5 M after 48 hrs by sulforhodamine B assay. Conditions: PC-3, 48 h, read-out: Activity.
The next assay deals with CAKI-1. As to the kind of experiment: Growth inhibition of human CAKI-1 cells assessed as cell growth at 10^-5 M after 48 hrs by sulforhodamine B assay. The conditions noted are these: CAKI-1, 48 h, read-out: Activity.
In the next assay the test system is 786-0. The experiment in a line: Growth inhibition of human 786-0 cells assessed as cell growth at 10^-5 M after 48 hrs by sulforhodamine B assay. Conditions: 786-0, 48 h, read-out: Activity.
Assay [5] is described as follows: Growth inhibition of human HCC2998 cells assessed as cell growth at 10^-5 M after 48 hrs by sulforhodamine B assay. The conditions noted are these: HCC 2998, 48 h, read-out: Activity.
The next assay deals with TK-10. The experiment in a line: Growth inhibition of human TK10 cells assessed as cell growth at 10^-5 M after 48 hrs by sulforhodamine B assay. Conditions: TK-10, 48 h, read-out: Activity.
The next assay concerns HCT-116. The experiment in a line: Growth inhibition of human HCT116 cells assessed as cell growth at 10^-5 M after 48 hrs by sulforhodamine B assay. Conditions: HCT-116, 48 h, read-out: Activity.
Assay [6] is described as follows: Growth inhibition of human MOLT4 cells assessed as cell growth at 10^-5 M after 48 hrs by sulforhodamine B assay. The conditions noted are these: MOLT-4, 48 h, read-out: Activity.

On to `O=C1/C(=C/c2c(Cl)cccc2Cl)CN(S(=O)(=O)c2ccccc2)C/C1=C\c1c(Cl)cccc1Cl`, for which the growth at 10 µM in the assay with NCI-H460 was determined as 74%; in assay [1] it was 73.9%; in assay [2], 81.6%; in the assay with Malme-3M, 90%; in the assay with SNB-75, 66.2%; in the assay with SW-620, 89.4%. The growth at 10 µM in the assay on A549 was determined as 67.3%; in [3], 99.9%; with HT-29 it was 71.5%; in [4], 95.3%; with NCI-H23, 82.6%; in the assay on KM12, 74.8%. Further, the growth at 10 µM in the assay on PC-3 was determined as 57.5%; with CAKI-1, 136%; with 786-0, 93%; in [5], 103%; in the assay with TK-10, 101%; with HCT-116, 61.7%. In assay [6], the growth at 10 µM was found to be 52.8%.

On to `Cc1ccc(S(=O)(=O)N2C/C(=C\c3c(Cl)cccc3Cl)C(=O)/C(=C/c3c(Cl)cccc3Cl)C2)cc1`, for which the growth at 10 µM worked out at 83.3% in the assay with NCI-H460; 84% in assay [1]; 90.9% in assay [2]; 89% in the assay on Malme-3M; 65.2% with SNB-75; 101% with SW-620. In addition, the growth at 10 µM in the assay on A549 was 77.1%; in assay [3], 106%; in the assay on HT-29 it was 83.7%; in [4], 101%; in the assay with NCI-H23, 97.7%; in the assay on KM12, 88.7%. The growth at 10 µM with PC-3 is 67.3%; in the assay with CAKI-1, 61.6%; with 786-0, 93.3%; in assay [5] it was 114%; in the assay on TK-10 it was 115%; in the assay on HCT-116, 74.2%. For the same compound, the growth at 10 µM in assay [6] is 68.7%.
